Experimental data: patent publication US20070254903A1, “Novel Spiroindoline or Spiroisoquinoline Compounds, Methods of Use and Compositions Thereof” (ARENA PHARMACEUTICALS, INC., priority 2003, published 2007)

Columns and labels:
[1] = tested on: isolated adult rat hearts; assay: Ischemia-Reperfusion Assay 1 (Langendorff apparatus); details: 10 μM; 30 min ischemia, 30 min reperfusion; compared to vehicle; FIG. 2
Description: Male Sprague-Dawley rats (300-350 g body weight) were anesthetized with pentobarbital sodium (50 mg/kg IP) then heparin (400 IU IP) was administered 10 minutes prior to surgery. The chest wall was opened and the heart was rapidly excised and immediately placed into ice-cold Krebs-Henseleit (KH) buffer (118 mM NaCl, 4.7 mM KCl, 1.2 mM MgSO4, 1.2 mM KH2PO4, 1.5 mM CaCl2, 25 mM NaHCO3, 11 mM glucose, 1 mM pyruvate, and 0.005 mM EDTA) to produce cardiac arrest. The aorta was then cannulated and the heart retrogradely perfused with KH buffer maintained at 37° C. in a reservoir bubbled with 95% O2/5% CO2 (pH7.4) on the Langendorff apparatus at a constant pressure of 80 mmHg. Myocardial temperature was maintained at 37° C. by partially submerging the heart into a water-jacketed chamber filled with KH buffer. A water filled latex balloon attached to a metal cannula and inserted into the left ventricle via the mitral valve and connected to a pressure transducer (Powerlab, ADInstruments, Inc) was used for measurement of left ventricular pressure. The balloon was initially inflated to an end-diastolic pressure of 10 mmHg. […] The difference between peak-systolic and end diastolic pressures, or left ventricular developed pressure (LVDP) was calculated as an index of contractile function and measured just prior to ischemia and at the end of reperfusion. […]

human Mas receptor = molecular target: T1, human Mas receptor (Homo sapiens, UniProt P04201); assay: Mas receptor IP3 assay (inverse agonist assay); format: cell-based
T1 construct: expressed in transfected cells
T1 sequence (P04201 1-325): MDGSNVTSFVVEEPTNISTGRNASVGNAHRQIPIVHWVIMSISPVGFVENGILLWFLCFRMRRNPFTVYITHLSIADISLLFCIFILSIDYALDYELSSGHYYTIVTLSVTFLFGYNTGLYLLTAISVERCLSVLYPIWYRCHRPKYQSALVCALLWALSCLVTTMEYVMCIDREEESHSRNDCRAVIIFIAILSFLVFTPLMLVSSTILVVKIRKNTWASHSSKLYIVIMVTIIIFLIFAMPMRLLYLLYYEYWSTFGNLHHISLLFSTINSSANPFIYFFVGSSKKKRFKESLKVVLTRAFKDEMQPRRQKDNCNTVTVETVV
Description: The Mas receptor IP3 assay was performed using a mammalian cell line (HEK293) which was transfected with a plasmid containing the human Mas receptor and selected for stable expression of the receptor. For the inverse agonist assay, higher levels of Mas receptor constitutive activity were desired. To achieve this, Mas receptor expression levels were increased by transiently transfecting the same Mas receptor stable cell line with additional human Mas receptor plasmid DNA following standard procedures. These cells were used in the Mas receptor IP3 assay approximately 24 hours post-transfection.
Cells were split into 96-well plates (50,000 cells/well) and allowed to attach for a period of 6 hours. The growth medium was then replaced with medium supplemented with 4 μCi/ml [^3H]myo-inositol (100 μl; Perkin Elmer Life Sciences) and the cells were allowed to incubate for approximately 20 hours. Test compounds were serially diluted in inositol-free media containing 10 mM LiCl. The media in the plates was removed by aspiration, replaced with these test compound solutions and incubated at 37° C. for 1 hour. Following this incubation, the media was removed by aspiration and replaced with buffer containing 0.1M formic acid. The plates were then frozen overnight at −80° C. to achieve complete cell lysis.
The following day, the assay plates were thawed at room temperature. The thawed contents were then transfered to 96-well filter plates (Millipore, Multiscreen) pre-loaded with resin (Biorad, AG1-X8 100-200 mesh, formate form). The plate was filtered using a vacuum manifold and the resin was washed multiple times with water. An elution buffer was then applied (200 μl, 0.2M Ammonium formate/0.1M formic acid) and the resulting eluent was collected, under vacuum, in a 96-well collection plate. Aliquots of the eluent (80 μl) were transferred to filter plates (Whatman, Unifilter GF/C) and dried in a 45° C. oven overnight. Dried plates were counted on a scintillation counter following the addition of an appropriate scintillant (Perkin Elmer Life Sciences, Optiphase Supermix or Hi-Safe 3).

[2] = tested on: isolated adult rat hearts; assay: Ischemia-Reperfusion Assay 2 (Langendorff apparatus)
Description: Male Sprague-Dawley rats (300-350 g body weight) were anesthetized with Inactin (100 mg/kg IP) 20 minutes prior to surgery. The chest wall was opened and the heart was rapidly excised and immediately placed into ice-cold Krebs-Henseleit (KH) buffer (118 mM NaCl, 4.7 mM KCl, 1.2 mM MgSO4, 1.2 mM KH2PO4, 1.5 mM CaCl2, 25 mM NaHCO3, 11 mM glucose […], and 0.005 mM EDTA) to produce cardiac arrest. The aorta was then cannulated and the heart retrogradely perfused with KH buffer maintained at 37° C. in a reservoir bubbled with 95% O2/5% CO2 (pH7.4) on the Langendorff apparatus at a constant pressure of 70 mmHg. Myocardial temperature was maintained at 37° C. by partially submerging the heart into a water-jacketed chamber filled with KH buffer. A water filled latex balloon attached to a metal cannula and inserted into the left ventricle via the mitral valve and connected to a pressure transducer (Powerlab, ADInstruments, Inc) was used for measurement of left ventricular pressure. The balloon was initially inflated to an end-diastolic pressure of 10 mmHg. After allowing 20 minutes for equilibration, rat hearts were subjected to 10 minutes of KH buffer containing drug or vehicle followed by 30 minutes of ischemia followed by 30 minutes of reperfusion. The difference between peak-systolic and end diastolic pressures, or left ventricular developed pressure (LVDP) was calculated as an index of contractile function and measured just prior to ischemia and at 10, 20 and 30 minutes of reperfusion. Percent recovery of LV function [(LVDP post reperfusion/LVDP pre-ischemia)[…]] was averaged across 5 vehicle and 4 drug treated hearts and one-way anova with Newman-Keuls Multiple Comparison Test was used to determine statistical significance.
Epicardial electrogram recordings were also taken from the isolated rat hearts used in FIGS. 3 and 4. Briefly, silver wire electrodes were placed on the right atrium and the apex of the left ventricle, allowing an epicardial electrogram to be recorded. […]

For `C=CCN1CCC2(CC1)CN(C(=O)c1cccc(F)c1F)c1ccc(F)cc12` [Compound 75, 1′-(allyl)-1,2-dihydro-5-fluoro-1-(2,3-difluoro-benzoyl)-spiro[3H-indole-3,4′-piperidine]], the “percent recovery of left ventricle function” value [1] was “significant increase in percent recovery of left ventricle function”, the IC50 (human Mas receptor; HEK293 cells over-expressing human Mas receptor, average from several experiments) was 298 nM and the IC50 (human Mas receptor; representative experiment, FIG. 1) was 225 nM. The “left ventricle function after reperfusion” value ([2]; 30 μM, 30 min ischemia, 30 min reperfusion, compared to vehicle, FIG. 3) was “significant increase in left ventricle function after reperfusion”, the “end diastolic pressure (EDP), ischemic contracture” value ([2]; 30 μM, compared to vehicle, FIG. 4) was “significant decrease in end diastolic pressure” and the “early reperfusion arrhythmias (hearts positive)” value ([2]; epicardial electrogram, first 5 minutes of reperfusion, FIG. 5) was “none of the four hearts”.
